One data set relates to trypsin. The experiment in a line: Trypsin stability assay. The format is in vitro ADME. Particulars: 5 mM EDTA, pH 8.0, 20 μM peptide, 37 °C, RP-HPLC; for Trypsin stability assay: half-life / half-life at 20 μM: 1 μg trypsin in 500 μL 20 mM Tris, samples 0-48 h, each time point in triplicate. As to the method: The following protocol was modified from a previous published method: Wild-type APETx2 and cyclic analogues were diluted into 500 μL trypsin buffer (20 mM Tris, 5 mM EDTA, pH 8.0) to a final concentration of 20 μM. Reactions were started by adding 1 μg trypsin to each sample. A 35-μL sample was used for each time point and quenched by mixing with 35 μL 0.2% TFA. Protease digestion was monitored using analytical RP-HPLC. Reactions were incubated at 37 °C and samples were taken at 0, 0.5, 1, 2, 4, 12, 24 and 48 h. All time points were investigated in triplicate.

Data set [1] can be described thus: Solution stability under lab storage conditions. Particulars: dissolved in water and kept at 4 °C; unpublished observations. The format is physicochemical.
The target in a further data set is T1, rat ASIC3 (Rattus norvegicus, UniProt O35240).
T1 construct: expressed in transfected cells; host or cells: Xenopus laevis oocytes (cRNA injection)
T1 sequence (O35240 1-533): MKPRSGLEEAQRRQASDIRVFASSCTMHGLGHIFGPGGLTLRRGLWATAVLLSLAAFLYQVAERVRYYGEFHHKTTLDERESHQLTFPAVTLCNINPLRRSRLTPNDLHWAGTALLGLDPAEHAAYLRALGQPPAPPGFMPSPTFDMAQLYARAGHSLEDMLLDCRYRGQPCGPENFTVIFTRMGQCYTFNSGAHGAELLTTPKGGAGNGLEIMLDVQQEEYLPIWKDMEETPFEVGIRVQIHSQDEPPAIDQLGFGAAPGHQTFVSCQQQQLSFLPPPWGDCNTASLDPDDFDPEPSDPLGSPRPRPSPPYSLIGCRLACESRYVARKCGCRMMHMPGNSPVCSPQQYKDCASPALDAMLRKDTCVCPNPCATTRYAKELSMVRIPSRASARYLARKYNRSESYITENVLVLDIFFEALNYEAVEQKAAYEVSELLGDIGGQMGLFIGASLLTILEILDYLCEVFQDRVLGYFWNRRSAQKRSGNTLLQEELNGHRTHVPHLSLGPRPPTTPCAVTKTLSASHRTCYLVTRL
The experiment in a line: Two-electrode voltage-clamp electrophysiology on Xenopus laevis oocytes expressing homomeric rat ASIC3. The settings on record: n = 6. The format is cell-based. As to the method:
The biological activity of wild-type APETx2 was compared with that of truncations and cyclic analogues using voltage-clamp electrophysiology experiments on Xenopus laevis oocytes expressing homomeric rat ASIC3. […] At 1000 nM, a concentration of APETx2 that normally causes >90% inhibition of ASIC3 [18], all three cyclic analogues had little activity (~10% inhibition, n = 6) (Figure 5). Although a full concentration-effect curve was not obtained, there is an approximate 125-fold decrease in activity for all three cyclic analogues based on the concentration that causes 10% inhibition (~8 nM for wild-type APETx2 vs. 1000 nM for cyclic APETx2).
Oocytes were obtained from Xenopus laevis frogs and treated with collagenase (Sigma type I) for defolliculation. cRNA of rat ASIC3 was synthesised using an mMessage mMachine cRNA transcription kit and healthy stage V–VI oocytes injected with 4 ng rat ASIC3 cRNA (40 nL of 100 ng/μL). Oocytes were kept at 17 °C in ND96 solution (96 mM NaCl, 2 mM KCl, 1 mM CaCl2, 2 mM MgCl2, 5 mM HEPES, 5 mM pyruvic acid, 50 µg/mL gentamicin, 2.5% fetal horse serum, pH 7.4). Membrane currents were recorded 2–6 days post cRNA injection under voltage-clamp (Axoclamp 900 A amplifier, Molecular Devices, Sunnyvale, CA, USA) using two standard glass microelectrodes with resistances of 0.5–1 MΩ when filled with 3 M KCl solution. […]
(Two-electrode voltage clamp holds a large cell at a set potential and records current.)

Data set [2] deals with T2, pepsin (Sus scrofa, UniProt P00791).
T2 construct: purchased Sigma Aldrich
The data set can be described thus: Simulated gastric fluid (SGF) stability assay. The format is in vitro ADME. Particulars: 20 μM peptide, RP-HPLC. As to the method:
(§1) The following protocol was modified from a published method: Wild-type APETx2 and cyclic analogues were separately diluted into 350 μL SGF (6.2 mg/mL pepsin, 30 mM NaCl, pH 1.9) to a final peptide concentration of 20 μM. Reactions were started with the addition of the peptides and the mixtures were incubated at 37 °C. 35-μL samples were taken at 0, 15, 30, 45, 60, 120, 240 and 480 min and mixed with 5 μL pepstatin A to quench the reaction (3.3 mg/mL dissolved in ethanol). Progress was monitored using RP-HPLC and each time point was investigated in triplicate.

Data set [3] concerns T3, pepsin.
T3 construct: purchased Sigma Aldrich
The data set can be described thus: Simulated gastric fluid (SGF) stability assay. It counts as in vitro ADME. Particulars: simulated gastric fluid (SGF) with pepsin; SGF: 6.2 mg/mL pepsin, 30 mM NaCl, pH 1.9; 20 μM peptide; 37 °C; samples 0-480 min; RP-HPLC; each time point in triplicate. As to the method: as §1

The values below come from PMC3407927, “Cyclisation Increases the Stability of the Sea Anemone Peptide APETx2 but Decreases Its Activity at Acid-Sensing Ion Channel 3” (Marine Drugs, 2012).

Where a SMILES comes first, the peptide text is derived from it. Bridges are numbered along the chain shown (N, C = ends). Where no end group is shown, it is not given here. Some results are limits rather than exact numbers.

T2 sequence (P00791 60-385): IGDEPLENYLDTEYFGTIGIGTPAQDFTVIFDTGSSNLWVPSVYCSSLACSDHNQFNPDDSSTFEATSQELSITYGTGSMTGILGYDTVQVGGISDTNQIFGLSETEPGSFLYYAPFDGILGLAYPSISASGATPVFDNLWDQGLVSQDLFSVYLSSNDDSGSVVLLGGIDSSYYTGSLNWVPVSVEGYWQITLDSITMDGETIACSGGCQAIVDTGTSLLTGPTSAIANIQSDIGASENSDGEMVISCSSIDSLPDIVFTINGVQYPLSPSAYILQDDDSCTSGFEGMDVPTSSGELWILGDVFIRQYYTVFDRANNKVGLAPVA

Consider “GTACSCGNSKGIYWFYRPSCPTDRGYTGSCRYFLGTCCTPAD (disulfide 4-37, 6-30, 20-38) [APETx2_wt, APETx2]”, for which the “Trypsin stability assay: half-life” value is 2.8 h with trypsin and ~ 2.8 h in the data set with trypsin (listed as wild-type APETx2). Moreover, the fraction remaining (as a rule, the share of the starting amount still present when the sample was taken) at 48 h, 20 μM in the data set on trypsin (trypsin in Tris/EDTA buffer, 48 h, 1 μg trypsin, 20 mM Tris, triplicate, read-out: peptide remaining intact after 48 h in the presence of trypsin) is around 4%. Further, in data set [1], the “solution stability under lab storage conditions” value is reported as “stable for months”. Also, the IC50 (in general, the concentration that gives 50% inhibition) at rat ASIC3 (Xenopus oocytes, clamped at −60 mV, pH 6 stimulus, ND96 with 0.1% BSA, RT, read-out: IC50 for inhibition of rASIC3 currents) was 61 nM. Besides, at pepsin [2] (SGF 6.2 mg/mL pepsin, pH 1.9, 37 °C), the “time within which peptide is almost totally digested in simulated gastric fluid” value is given as at most 20 min. Further, the “Simulated gastric fluid stability assay: half-life” value at pepsin [2] (SGF: 6.2 mg/mL pepsin, 30 mM NaCl, pH 1.9, 37 °C, samples 0-480 min, each time point in triplicate) was 5 min. In addition, the half-life – broadly, how long it takes for the measured level to halve – at 20 μM in the data set with pepsin [3] was around 0.0833 h.

Regarding “cyclo(ACSCGNSKGIYWFYRPSCPTDRGYTGSCRYFLGTCCTPADSAGASGSAGT) (disulfide 2-35, 4-28, 18-36) [cAPETx2_8RL]”, the half-life at 20 μM is 131 h with trypsin (trypsin in Tris/EDTA buffer) and 1.67 h in the data set with pepsin [3].

In the case of “cyclo(ACSCGNSKGIYWFYRPSCPTDRGYTGSCRYFLGTCCTPADGASGSAGT) (disulfide 2-35, 4-28, 18-36) [cAPETx2_6RL]”, the figures for the half-life at 20 μM in the data set on trypsin (trypsin in Tris/EDTA buffer) and in the data set with pepsin [3] were 104 h and 1.9 h, respectively.

Take `CC[C@H](C)[C@@H]1NC(=O)CNC(=O)[C@H](CCCCN)NC(=O)[C@H](CO)NC(=O)[C@H](CC(N)=O)NC(=O)CNC(=O)[C@@H]2CSSC[C@@H]3NC(=O)[C@H](CO)NC(=O)CNC(=O)[C@H]([C@@H](C)O)NC(=O)[C@H](Cc4ccc(O)cc4)NC(=O)CNC(=O)[C@H](CCCNC(=N)N)NC(=O)[C@H](CC(=O)O)NC(=O)[C@H]([C@@H](C)O)NC(=O)[C@@H]4CCCN4C(=O)[C@H](CSSC[C@@H](C(=O)N[C@H](C(=O)N4CCC[C@H]4C(=O)N[C@@H](C)C(=O)N[C@@H](CC(=O)O)C(=O)O)[C@@H](C)O)NC(=O)[C@H](CSSC[C@H](NC(=O)[C@H](C)N)C(=O)N[C@@H](CO)C(=O)N2)NC(=O)[C@H]([C@@H](C)O)NC(=O)CNC(=O)[C@H](CC(C)C)NC(=O)[C@H](Cc2ccccc2)NC(=O)[C@H](Cc2ccc(O)cc2)NC(=O)[C@H](CCCNC(=N)N)NC3=O)NC(=O)[C@H](CO)NC(=O)[C@@H]2CCCN2C(=O)[C@H](CCCNC(=N)N)NC(=O)[C@H](Cc2ccc(O)cc2)NC(=O)[C@H](Cc2ccccc2)NC(=O)[C@H](Cc2c[nH]c3ccccc23)NC(=O)[C@H](Cc2ccc(O)cc2)NC1=O` [APETx2_3–42] (H-ACSCGNSKGIYWFYRPSCPTDRGYTGSCRYFLGTCCTPAD-OH; disulfide 2-35, 4-28, 18-36): at rat ASIC3 (3 μM peptide, rat ASIC3 in Xenopus oocytes, read-out: inhibition of ASIC3 currents at 3 μM), the inhibition (as a rule, the drop in the measured response relative to a control, in per cent) at 3 µM is around 13%.

As for “cyclo(ACSCGNSKGIYWFYRPSCPTDRGYTGSCRYFLGTCCTPADAGASGSAGT) (disulfide 2-35, 4-28, 18-36) [cAPETx2_7RL]”, the half-life at 20 μM with trypsin (trypsin in Tris/EDTA buffer) is 134 h; with pepsin [3], 2.75 h.
